For ten compounds, Kd results are on record in ChEMBL document CHEMBL3991601, “The target landscape of clinical kinase drugs” (Science, 2017).

The source made the active and inactive calls. For most assays here, no stated cut-off is given here; in the data, actives have a measured Kd and inactives only a lower limit.

For assay [1], the target named is T1, Calcium/calmodulin-dependent protein kinase type IV (Homo sapiens, UniProt Q16566).
T1 sequence (Q16566 whole entry): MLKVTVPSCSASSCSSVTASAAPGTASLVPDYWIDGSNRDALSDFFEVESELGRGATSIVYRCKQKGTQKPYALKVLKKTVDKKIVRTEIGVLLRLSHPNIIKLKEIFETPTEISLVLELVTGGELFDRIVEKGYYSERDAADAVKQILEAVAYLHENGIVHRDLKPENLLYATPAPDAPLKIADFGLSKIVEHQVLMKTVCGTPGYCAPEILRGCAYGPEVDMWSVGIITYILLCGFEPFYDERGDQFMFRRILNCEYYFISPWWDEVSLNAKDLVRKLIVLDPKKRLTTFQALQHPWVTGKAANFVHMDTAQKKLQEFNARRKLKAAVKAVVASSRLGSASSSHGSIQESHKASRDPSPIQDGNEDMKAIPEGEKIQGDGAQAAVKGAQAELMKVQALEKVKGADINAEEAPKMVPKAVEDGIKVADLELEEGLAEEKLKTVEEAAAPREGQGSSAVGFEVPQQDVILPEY

For assay [2], the target named is MAP kinase-activated protein kinase 2 (Homo sapiens, UniProt P49137).
MAP kinase-activated protein kinase 2, sequence (P49137 whole entry): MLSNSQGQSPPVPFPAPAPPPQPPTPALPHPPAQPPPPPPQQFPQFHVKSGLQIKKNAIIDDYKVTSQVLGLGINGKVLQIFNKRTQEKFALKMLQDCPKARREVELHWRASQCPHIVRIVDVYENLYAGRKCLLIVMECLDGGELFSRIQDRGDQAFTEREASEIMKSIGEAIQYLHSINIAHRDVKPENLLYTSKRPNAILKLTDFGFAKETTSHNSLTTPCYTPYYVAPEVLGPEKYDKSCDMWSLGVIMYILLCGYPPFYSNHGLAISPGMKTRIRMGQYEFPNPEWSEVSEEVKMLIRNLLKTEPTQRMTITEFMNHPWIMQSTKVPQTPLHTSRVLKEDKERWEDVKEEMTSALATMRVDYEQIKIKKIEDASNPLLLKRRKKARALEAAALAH
Assay [3] deals with Tyrosine-protein kinase FRK (Homo sapiens, UniProt P42685).
Tyrosine-protein kinase FRK, sequence (P42685 whole entry): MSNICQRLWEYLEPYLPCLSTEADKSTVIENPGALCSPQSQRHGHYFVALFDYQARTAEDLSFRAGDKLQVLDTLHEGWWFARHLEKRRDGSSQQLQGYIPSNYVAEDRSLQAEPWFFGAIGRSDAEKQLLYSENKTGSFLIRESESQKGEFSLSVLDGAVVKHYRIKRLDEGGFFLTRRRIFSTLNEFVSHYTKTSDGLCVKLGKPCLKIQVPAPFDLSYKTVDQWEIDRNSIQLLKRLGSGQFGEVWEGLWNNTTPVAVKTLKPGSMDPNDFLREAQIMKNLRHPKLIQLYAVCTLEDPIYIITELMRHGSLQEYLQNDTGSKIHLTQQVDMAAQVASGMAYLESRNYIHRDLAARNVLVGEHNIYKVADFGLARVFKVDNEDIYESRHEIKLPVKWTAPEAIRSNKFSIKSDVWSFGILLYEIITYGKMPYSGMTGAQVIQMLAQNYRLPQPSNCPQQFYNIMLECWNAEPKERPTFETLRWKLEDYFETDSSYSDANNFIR
In assay [4] the target is T2, Serine/threonine-protein kinase TAO2 (Homo sapiens, UniProt Q9UL54).
T2 sequence (Q9UL54 whole entry): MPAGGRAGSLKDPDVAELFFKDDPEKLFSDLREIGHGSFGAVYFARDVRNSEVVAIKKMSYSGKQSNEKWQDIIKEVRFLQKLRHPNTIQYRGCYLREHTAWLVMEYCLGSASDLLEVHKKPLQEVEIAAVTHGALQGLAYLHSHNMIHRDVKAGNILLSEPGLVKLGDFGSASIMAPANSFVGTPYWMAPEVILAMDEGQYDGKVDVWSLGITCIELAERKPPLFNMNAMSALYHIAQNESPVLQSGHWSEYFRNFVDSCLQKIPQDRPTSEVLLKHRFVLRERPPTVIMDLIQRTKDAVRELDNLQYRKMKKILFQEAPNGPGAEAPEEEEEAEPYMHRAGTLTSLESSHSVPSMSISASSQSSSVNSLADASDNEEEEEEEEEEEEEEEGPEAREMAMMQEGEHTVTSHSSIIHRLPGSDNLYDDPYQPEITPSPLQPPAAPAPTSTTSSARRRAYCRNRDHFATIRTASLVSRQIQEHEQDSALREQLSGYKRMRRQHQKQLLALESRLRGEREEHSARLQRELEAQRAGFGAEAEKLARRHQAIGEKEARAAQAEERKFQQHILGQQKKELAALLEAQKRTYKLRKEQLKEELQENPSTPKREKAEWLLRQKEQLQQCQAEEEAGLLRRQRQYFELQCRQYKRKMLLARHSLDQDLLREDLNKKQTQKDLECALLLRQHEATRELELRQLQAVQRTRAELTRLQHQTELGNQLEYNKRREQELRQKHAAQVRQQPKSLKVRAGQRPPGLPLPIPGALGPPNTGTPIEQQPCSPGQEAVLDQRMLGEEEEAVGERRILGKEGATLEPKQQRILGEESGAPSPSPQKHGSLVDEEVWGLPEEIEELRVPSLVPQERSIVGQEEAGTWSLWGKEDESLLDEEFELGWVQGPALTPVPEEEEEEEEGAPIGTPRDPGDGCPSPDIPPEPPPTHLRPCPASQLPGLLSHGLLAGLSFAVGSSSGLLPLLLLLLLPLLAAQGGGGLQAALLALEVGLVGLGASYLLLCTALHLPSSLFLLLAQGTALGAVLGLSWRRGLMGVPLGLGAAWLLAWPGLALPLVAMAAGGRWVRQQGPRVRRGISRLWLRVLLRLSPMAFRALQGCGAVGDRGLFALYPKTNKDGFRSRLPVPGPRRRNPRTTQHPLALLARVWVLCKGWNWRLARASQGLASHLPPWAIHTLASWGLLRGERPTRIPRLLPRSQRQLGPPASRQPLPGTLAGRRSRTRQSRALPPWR

The target of the next assay is TGF-beta receptor type-2 (Homo sapiens, UniProt P37173).
TGF-beta receptor type-2, sequence (P37173 whole entry): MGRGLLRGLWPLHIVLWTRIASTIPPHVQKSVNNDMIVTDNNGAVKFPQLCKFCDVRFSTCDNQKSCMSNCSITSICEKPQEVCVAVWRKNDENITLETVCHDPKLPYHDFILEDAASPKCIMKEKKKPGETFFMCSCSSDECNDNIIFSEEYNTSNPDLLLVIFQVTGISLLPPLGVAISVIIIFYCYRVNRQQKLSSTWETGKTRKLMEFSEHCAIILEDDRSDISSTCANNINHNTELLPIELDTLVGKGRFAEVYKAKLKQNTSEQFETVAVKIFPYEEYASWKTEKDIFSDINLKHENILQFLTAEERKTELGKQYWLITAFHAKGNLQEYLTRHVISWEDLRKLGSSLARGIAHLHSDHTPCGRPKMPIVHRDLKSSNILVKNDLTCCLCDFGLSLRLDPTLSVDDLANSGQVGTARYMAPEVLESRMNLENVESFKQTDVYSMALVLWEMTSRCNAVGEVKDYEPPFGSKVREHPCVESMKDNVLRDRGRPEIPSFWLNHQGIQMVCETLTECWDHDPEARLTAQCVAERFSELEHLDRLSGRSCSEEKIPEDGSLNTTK
The target in assay [5] is T3, Bifunctional phosphoribosylaminoimidazole carboxylase/phosphoribosylaminoimidazole succinocarboxamide synthetase (Homo sapiens, UniProt P22234).
T3 sequence (P22234 whole entry): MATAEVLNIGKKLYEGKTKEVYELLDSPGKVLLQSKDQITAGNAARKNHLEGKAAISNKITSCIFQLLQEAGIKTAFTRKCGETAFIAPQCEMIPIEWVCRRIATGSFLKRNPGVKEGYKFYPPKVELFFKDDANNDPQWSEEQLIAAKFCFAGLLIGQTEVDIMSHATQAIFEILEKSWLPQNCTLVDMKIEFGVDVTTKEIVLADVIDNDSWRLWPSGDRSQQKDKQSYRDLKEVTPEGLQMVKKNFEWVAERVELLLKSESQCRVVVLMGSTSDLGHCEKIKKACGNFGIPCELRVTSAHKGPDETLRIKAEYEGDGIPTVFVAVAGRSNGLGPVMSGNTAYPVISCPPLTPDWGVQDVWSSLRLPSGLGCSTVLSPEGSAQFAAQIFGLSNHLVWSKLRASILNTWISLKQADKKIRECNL

Assay [6] has as its target T4, Signal recognition particle receptor subunit alpha (Homo sapiens, UniProt P08240).
T4 sequence (P08240 whole entry): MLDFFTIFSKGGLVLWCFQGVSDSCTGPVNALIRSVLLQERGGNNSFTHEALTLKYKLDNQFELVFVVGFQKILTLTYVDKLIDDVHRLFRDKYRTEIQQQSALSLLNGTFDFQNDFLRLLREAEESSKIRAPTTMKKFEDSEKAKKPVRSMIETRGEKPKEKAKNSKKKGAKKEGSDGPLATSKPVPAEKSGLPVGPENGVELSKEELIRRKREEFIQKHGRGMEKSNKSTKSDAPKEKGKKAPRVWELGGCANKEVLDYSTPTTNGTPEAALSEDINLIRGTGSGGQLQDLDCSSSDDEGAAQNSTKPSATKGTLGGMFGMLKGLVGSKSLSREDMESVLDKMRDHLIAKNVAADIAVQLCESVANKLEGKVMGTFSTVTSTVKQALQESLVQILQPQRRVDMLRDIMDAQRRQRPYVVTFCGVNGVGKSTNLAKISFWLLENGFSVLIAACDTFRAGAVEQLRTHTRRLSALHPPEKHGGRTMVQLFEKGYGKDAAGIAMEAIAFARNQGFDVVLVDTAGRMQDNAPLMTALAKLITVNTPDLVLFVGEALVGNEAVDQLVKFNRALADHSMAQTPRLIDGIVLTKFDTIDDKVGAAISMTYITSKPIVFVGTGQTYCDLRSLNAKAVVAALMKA

Take `CCc1nc(C(N)=O)c(Nc2ccc(N3CCC(N4CCN(C)CC4)CC3)c(OC)c2)nc1NC1CCOCC1` [GILTERITINIB]: the Kd in assay [1] is 0.421 µM (active); in assay [2], > 30 µM (inactive); in assay [3] it was > 30 µM (inactive); in assay [4], 2.09 µM (active); at TGF-beta receptor type-2, > 30 µM (inactive); in assay [5], 5.48 µM. For the same compound, the Kd in assay [6] is > 30 µM (inactive).

As for `Cc1cc(Nc2nc(N[C@@H](C)c3ncc(F)cn3)ncc2Cl)n[nH]1` [AZD-1480], the Kd (in assay [1]; in assay [2]; in assay [3]; in assay [4]; at TGF-beta receptor type-2; in assay [5]) was > 30 µM (inactive) throughout. Moreover, the Kd in assay [6] is > 30 µM (inactive).

As to `Cc1ccc(C(=O)Nc2ccc(Oc3cc4cnn(C)c4cc3-c3cn[nH]c3)c(F)c2)c(=O)n1-c1ccc(F)cc1` [MERESTINIB], the Kd was 3.26 µM (active) in assay [1]; > 30 µM (inactive) in assay [2]; > 30 µM (inactive) in assay [3]; > 30 µM (inactive) in assay [4]; > 30 µM (inactive) on TGF-beta receptor type-2; > 30 µM (inactive) in assay [5]. For the same compound, the Kd in assay [6] is > 30 µM (inactive).

`C#Cc1cccc(Nc2ncnc3cc4c(cc23)OCCOCCOCCO4)c1` [ICOTINIB]: the Kd (in assay [1]; in assay [2]; in assay [3]; in assay [4]; on TGF-beta receptor type-2; in assay [5]) was > 30 µM (inactive) throughout. Moreover, in assay [6], the Kd was > 30 µM (inactive).

As to `C=CCn1c(=O)c2cnc(Nc3ccc(N4CCN(C)CC4)cc3)nc2n1-c1cccc(C(C)(C)O)n1` [ADAVOSERTIB], the Kd (in assay [1]; in assay [2]; in assay [3]; in assay [4]; on TGF-beta receptor type-2; in assay [5]) was > 30 µM (inactive) in each case. In addition, the Kd in assay [6] was > 30 µM (inactive).

Regarding `O=S(=O)(c1cccc2cnccc12)N1CCCNCC1` [FASUDIL], the Kd (in assay [1]; in assay [3]; in assay [4]; on TGF-beta receptor type-2; in assay [5]; in assay [6]) was > 30 µM (inactive) throughout.

In the case of `O=S(=O)(c1cccc2c(O)nccc12)N1CCCNCC1` [HYDROXYFASUDIL], the Kd (in assay [1]; in assay [3]; in assay [4]; on TGF-beta receptor type-2; in assay [5]; in assay [6]) was > 30 µM (inactive) each time.

For the compound `S=C(NCc1ccc2c(c1)OCO2)N1CCN(c2ncnc3c2oc2ccccc23)CC1` [AMUVATINIB], the Kd in assay [2], in assay [3], in assay [4], in assay [5] and in assay [6] was > 30 µM (inactive) in each case.

In the case of `C=CC(=O)Nc1cc(Nc2nccc(-c3cn(C)c4ccccc34)n2)c(OC)cc1N(C)CCN(C)C` [OSIMERTINIB], the Kd in assay [1], in assay [2], in assay [3], in assay [4], in assay [5] and in assay [6] was > 30 µM (inactive) throughout.

For `NC[C@@](O)(c1ccc(Cl)cc1)c1ccc(-c2cn[nH]c2)cc1` [AT-13148], the Kd in assay [1], in assay [2], in assay [3], in assay [4], in assay [5] and in assay [6] was > 30 µM (inactive) in each case.
